This is an account of results in paper PMC12136037, “Type II kinase inhibitors that target Parkinson’s disease–associated LRRK2” (Science Advances, 2025).

Common to all, as to experiment: DSF 100 kinase selectivity screen;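 for dTm: compound tested at 20 µM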
Common to all, as to assay type: binding

In test [1] the target is T1, ~100 representative kinases (Homo sapiens, UniProt P51813).
T1 construct: Recombinant protein kinase domains with a concentration of 2 μM
T1 sequence (P51813 1-675): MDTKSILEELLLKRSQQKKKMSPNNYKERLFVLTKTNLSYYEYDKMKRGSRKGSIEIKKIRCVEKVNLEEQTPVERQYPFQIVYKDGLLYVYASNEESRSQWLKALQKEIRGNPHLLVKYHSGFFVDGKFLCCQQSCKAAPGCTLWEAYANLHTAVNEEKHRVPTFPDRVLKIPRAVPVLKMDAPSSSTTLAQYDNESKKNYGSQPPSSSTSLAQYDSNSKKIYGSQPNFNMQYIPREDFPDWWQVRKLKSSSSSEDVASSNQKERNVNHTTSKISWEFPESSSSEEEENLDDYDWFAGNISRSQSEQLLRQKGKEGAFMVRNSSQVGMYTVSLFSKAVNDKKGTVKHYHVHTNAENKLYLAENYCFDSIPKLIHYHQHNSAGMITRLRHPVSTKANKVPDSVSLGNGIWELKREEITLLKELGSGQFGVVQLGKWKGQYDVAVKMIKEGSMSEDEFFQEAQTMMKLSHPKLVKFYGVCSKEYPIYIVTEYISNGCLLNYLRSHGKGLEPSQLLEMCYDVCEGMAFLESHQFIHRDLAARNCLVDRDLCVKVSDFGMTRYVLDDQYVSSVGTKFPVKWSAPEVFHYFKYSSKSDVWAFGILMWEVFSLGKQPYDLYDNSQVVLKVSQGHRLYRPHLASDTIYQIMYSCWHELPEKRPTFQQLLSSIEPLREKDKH
Conditions: Protein BMX; average of three replicates. On the procedure: (§1) Recombinant protein kinase domains with a concentration of 2 μM were mixed with a 20 μM compound solution in dimethyl sulfoxide (DMSO), 20 mM Hepes (pH 7.5), and 500 mM NaCl. SYPRO Orange (5000×, Invitrogen) was added as a fluorescence probe (1μl/ml). Subsequently, temperature-dependent protein unfolding profiles were measured using the QuantStudio 5 realtime PCR machine (Thermo Fisher Scientific, Waltham, MA, USA). […] The temperature was raised with a step rate of 3°C/min. […] Differences in melting temperature are given as ΔTm values in degrees Celsius. […]

The target of test [2] is T2, ~100 representative kinases (Homo sapiens, UniProt Q9NSY1).
T2 construct: Recombinant protein kinase domains with a concentration of 2 μM
Particulars: Protein BMP2K; average of three replicates. On the procedure: as §1

The target in test [3] is T3, ~100 representative kinases (Homo sapiens, UniProt Q13554).
T3 construct: Recombinant protein kinase domains with a concentration of 2 μM
Particulars: Protein CAMK2B; average of three replicates. On the procedure:
as §1

Test [4] has as its target T4, ~100 representative kinases (Homo sapiens, UniProt Q99640).
T4 construct: Recombinant protein kinase domains with a concentration of 2 μM
T4 sequence (Q99640 1-499): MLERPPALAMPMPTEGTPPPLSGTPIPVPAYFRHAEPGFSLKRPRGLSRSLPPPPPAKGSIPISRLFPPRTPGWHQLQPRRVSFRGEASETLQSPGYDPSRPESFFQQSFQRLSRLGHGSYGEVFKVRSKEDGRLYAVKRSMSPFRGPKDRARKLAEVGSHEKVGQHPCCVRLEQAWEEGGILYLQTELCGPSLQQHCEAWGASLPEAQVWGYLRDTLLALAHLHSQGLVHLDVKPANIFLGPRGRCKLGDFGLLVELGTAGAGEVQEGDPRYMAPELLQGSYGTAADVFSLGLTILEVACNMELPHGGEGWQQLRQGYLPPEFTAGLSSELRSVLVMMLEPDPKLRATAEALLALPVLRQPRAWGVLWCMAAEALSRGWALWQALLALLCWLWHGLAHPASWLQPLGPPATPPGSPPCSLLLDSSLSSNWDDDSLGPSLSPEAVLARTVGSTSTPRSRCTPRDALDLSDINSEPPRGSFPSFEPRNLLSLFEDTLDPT
Particulars: protein PKMYT1; average of three replicates. On the procedure:
as §1

The subject of test [5] is ~100 representative kinases. Conditions: for dTm: Protein BRD, average of three replicates; for # >5K: number of proteins of the DSF panel with dTm >5K; for S (5 K) / share of screened kinases stabilized: DSF selectivity panel, thermal shift >5 K. On the procedure: as §1
Test [6] has as its target T5, ~100 representative kinases (Homo sapiens, UniProt P24941).
T5 construct: Recombinant protein kinase domains with a concentration of 2 μM
Particulars: Protein CDK2; average of three replicates. On the procedure:
as §1

The target in test [7] is T6, ~100 representative kinases (Homo sapiens, UniProt P49674).
T6 construct: Recombinant protein kinase domains with a concentration of 2 μM
Particulars: Protein CSNK1E; average of three replicates. On the procedure:
as §1

The target of test [8] is T7, ~100 representative kinases (Homo sapiens, UniProt Q9Y2H1).
T7 construct: Recombinant protein kinase domains with a concentration of 2 μM
Conditions: Protein STK38L; DSF; average of three replicates. On the procedure: as §1

The target in test [9] is T8, ~100 representative kinases (Homo sapiens, UniProt P17948).
T8 construct: Recombinant protein kinase domains with a concentration of 2 μM
Conditions: protein FLT1; average of three replicates. On the procedure:
as §1

The target of test [10] is T9, ~100 representative kinases (Homo sapiens, UniProt Q92630).
T9 construct: Recombinant protein kinase domains with a concentration of 2 μM
T9 sequence (Q92630 1-601): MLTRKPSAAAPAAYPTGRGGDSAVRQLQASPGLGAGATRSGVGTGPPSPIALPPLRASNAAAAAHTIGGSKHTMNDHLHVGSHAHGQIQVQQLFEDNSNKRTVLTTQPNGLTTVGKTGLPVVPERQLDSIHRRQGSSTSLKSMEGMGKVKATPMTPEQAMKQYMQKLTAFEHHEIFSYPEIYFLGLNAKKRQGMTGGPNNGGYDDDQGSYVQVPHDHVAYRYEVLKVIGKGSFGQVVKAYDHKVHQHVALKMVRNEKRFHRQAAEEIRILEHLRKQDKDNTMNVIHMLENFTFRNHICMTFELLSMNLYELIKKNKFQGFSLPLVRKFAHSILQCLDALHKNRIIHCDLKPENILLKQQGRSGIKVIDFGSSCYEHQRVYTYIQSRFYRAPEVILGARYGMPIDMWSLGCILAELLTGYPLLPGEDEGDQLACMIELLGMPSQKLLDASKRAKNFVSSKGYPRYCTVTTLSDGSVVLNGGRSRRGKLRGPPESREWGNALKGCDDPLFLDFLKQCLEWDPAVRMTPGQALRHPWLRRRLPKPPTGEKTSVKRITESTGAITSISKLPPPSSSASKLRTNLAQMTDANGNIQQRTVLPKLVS
Conditions: Protein DYRK2; average of three replicates. On the procedure:
as §1

Test [11] deals with T10, ~100 representative kinases (Homo sapiens, UniProt Q9UPE1).
T10 construct: Recombinant protein kinase domains with a concentration of 2 μM
Particulars: Protein SRPK3; DSF; average of three replicates. On the procedure:
as §1

The target in test [12] is T11, ~100 representative kinases (Homo sapiens, UniProt Q9H4A3).
T11 construct: Recombinant protein kinase domains with a concentration of 2 μM
Conditions: Protein WNK1; DSF; average of three replicates. On the procedure:
as §1

The target of test [13] is T12, ~100 representative kinases (Homo sapiens, UniProt Q13627).
T12 construct: Recombinant protein kinase domains with a concentration of 2 μM
Conditions: Protein DYRK1A; average of three replicates. On the procedure:
as §1

The mark [14] stands for this setting: number of kinases with thermal shift >5 K divided by total number of kinases screened.
The mark [15] stands for this setting: selectivity score: # >5K divided by # of proteins tested in the DSF panel.

T2 sequence (Q9NSY1 whole entry, the tested form may be a part): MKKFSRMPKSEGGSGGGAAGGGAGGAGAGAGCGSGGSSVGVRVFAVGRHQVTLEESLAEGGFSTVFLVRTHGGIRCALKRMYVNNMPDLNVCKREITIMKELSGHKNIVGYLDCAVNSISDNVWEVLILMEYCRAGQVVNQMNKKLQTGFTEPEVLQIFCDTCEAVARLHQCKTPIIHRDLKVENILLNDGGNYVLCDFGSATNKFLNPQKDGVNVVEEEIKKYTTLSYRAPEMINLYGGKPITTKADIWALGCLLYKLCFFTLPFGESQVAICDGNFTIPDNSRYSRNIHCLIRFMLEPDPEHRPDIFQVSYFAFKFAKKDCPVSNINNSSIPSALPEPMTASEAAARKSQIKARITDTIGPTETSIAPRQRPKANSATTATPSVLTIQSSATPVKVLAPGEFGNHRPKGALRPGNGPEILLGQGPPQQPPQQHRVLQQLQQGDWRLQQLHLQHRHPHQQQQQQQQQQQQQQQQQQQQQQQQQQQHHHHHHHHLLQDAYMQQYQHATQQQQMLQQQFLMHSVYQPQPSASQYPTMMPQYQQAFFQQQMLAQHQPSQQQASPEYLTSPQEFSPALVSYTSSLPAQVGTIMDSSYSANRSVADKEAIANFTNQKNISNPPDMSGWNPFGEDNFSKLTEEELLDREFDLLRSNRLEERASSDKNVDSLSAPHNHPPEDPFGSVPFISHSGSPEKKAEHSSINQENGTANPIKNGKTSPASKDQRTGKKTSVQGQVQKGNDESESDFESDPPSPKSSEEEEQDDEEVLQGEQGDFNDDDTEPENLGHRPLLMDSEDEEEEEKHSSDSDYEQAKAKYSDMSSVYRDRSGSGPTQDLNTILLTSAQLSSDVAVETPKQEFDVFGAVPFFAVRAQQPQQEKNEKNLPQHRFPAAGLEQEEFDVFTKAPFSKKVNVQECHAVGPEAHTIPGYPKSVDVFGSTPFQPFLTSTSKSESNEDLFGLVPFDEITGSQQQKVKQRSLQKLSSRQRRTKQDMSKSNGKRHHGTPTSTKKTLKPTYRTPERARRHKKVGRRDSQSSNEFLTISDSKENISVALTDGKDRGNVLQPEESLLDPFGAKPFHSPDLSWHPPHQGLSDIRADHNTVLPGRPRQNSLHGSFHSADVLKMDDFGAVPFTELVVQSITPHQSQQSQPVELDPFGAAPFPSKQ
T7 sequence (Q9Y2H1 whole entry, the tested form may be a part): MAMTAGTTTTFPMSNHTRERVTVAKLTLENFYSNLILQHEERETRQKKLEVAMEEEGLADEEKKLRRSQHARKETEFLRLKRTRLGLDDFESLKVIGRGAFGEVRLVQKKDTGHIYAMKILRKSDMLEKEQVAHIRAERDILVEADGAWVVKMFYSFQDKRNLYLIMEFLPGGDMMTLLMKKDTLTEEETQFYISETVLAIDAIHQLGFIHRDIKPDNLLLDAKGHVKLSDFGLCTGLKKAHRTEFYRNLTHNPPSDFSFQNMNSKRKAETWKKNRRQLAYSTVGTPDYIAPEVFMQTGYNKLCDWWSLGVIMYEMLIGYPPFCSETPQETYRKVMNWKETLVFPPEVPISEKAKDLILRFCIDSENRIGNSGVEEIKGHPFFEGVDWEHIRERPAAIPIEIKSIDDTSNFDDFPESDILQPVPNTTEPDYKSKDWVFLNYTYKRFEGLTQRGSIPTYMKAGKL
T10 sequence (Q9UPE1 whole entry, the tested form may be a part): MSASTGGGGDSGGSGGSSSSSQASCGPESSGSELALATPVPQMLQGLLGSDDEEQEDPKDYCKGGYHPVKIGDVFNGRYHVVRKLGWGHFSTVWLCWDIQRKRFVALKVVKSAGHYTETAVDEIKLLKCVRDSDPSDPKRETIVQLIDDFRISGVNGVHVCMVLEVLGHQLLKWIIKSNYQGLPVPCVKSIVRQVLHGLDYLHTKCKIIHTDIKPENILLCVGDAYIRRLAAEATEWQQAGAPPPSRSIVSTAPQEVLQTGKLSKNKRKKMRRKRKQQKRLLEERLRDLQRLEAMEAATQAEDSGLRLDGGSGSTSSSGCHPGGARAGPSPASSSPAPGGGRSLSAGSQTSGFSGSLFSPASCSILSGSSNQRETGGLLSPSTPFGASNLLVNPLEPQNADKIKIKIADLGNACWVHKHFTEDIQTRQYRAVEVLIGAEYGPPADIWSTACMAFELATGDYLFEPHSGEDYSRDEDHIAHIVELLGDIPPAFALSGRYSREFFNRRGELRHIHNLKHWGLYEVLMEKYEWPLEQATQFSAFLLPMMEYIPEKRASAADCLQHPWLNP
T6 sequence (P49674 whole entry, the tested form may be a part): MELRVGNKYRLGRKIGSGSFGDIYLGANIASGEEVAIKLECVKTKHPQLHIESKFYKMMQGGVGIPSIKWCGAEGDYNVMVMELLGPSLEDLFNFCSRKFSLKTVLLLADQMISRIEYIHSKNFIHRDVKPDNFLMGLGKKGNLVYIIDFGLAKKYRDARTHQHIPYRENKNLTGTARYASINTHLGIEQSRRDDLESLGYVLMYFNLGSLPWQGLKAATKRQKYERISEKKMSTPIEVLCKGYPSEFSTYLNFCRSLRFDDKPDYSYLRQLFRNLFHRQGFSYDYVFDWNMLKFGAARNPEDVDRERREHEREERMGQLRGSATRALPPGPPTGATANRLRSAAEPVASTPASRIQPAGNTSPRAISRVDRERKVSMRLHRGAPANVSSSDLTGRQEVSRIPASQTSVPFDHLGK
T8 sequence (P17948 27-1338): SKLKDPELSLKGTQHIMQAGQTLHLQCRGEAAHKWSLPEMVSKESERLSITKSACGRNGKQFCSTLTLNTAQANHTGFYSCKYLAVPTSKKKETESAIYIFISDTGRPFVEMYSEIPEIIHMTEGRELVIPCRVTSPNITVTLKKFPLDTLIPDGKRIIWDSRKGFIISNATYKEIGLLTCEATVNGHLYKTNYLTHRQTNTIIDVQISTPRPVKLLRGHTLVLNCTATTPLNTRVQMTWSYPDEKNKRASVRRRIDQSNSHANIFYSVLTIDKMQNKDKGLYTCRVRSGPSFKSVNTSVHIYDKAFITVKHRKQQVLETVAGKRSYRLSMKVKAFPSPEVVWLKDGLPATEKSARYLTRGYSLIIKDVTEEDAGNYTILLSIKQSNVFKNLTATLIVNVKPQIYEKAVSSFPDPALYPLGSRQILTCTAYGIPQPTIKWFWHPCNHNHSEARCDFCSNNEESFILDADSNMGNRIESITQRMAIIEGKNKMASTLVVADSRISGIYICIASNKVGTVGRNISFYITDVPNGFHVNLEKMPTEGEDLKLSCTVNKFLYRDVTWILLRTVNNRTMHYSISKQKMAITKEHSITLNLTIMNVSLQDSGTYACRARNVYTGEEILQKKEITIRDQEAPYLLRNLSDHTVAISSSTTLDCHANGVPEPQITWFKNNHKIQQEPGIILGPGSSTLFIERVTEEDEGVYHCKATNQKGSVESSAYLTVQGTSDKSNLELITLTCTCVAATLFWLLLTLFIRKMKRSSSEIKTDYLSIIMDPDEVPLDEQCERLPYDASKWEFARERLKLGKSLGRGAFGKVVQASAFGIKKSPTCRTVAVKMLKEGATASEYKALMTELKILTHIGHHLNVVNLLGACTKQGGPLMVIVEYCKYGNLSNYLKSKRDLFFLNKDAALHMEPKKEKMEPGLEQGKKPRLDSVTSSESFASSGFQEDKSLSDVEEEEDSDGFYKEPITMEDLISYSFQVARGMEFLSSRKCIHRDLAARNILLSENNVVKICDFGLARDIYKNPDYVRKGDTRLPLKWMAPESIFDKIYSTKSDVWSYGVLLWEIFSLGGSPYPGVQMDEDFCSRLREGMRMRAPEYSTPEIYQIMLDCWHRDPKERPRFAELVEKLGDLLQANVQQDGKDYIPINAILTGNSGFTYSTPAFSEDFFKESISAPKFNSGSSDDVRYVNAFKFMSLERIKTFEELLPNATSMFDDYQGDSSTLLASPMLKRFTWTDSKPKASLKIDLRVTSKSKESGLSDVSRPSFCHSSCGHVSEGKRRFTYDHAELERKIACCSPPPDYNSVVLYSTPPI
T3 sequence (Q13554 whole entry, the tested form may be a part): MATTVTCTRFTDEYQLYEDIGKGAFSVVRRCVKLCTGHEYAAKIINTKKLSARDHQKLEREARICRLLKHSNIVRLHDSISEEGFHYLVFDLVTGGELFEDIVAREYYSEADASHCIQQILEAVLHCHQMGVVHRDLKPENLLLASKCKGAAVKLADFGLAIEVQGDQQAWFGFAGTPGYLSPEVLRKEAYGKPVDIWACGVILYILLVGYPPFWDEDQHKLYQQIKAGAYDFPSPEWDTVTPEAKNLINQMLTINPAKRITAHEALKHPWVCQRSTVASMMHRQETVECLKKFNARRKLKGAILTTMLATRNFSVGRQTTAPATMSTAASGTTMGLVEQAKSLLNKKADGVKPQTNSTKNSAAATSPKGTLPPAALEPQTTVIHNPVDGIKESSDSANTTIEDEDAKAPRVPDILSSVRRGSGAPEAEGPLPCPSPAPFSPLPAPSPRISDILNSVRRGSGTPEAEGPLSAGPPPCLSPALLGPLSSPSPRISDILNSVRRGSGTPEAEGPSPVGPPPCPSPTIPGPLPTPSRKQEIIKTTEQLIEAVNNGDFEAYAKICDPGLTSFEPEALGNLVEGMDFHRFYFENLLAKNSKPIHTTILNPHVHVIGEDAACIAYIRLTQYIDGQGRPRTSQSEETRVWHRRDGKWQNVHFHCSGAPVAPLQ

Turning to `COc1cc(S(C)(=O)=O)ccc1Nc1nc(N(C)C)c2c(Cl)c[nH]c2n1` [Compound 37], the dTm is on record as -0.17 K in test [1]; 0.08 K in test [2]; -0.66 K in test [3]; -0.22 K in [4]; 0.52 K in test [5]; -0.37 K in [6]. The dTm was 1.77 K in test [7]; -1.21 K in test [8]; -0.32 K in [9]; 1.57 K in [10]; 0.46 K in [11]; 0.04 K in test [12]. This compound also had a dTm in test [13] of 2.45 K. Moreover, the “S(5K)” value in test [5] (setting [14]) was 0.05; in [5] (setting [15]) it was 0.050. Besides, the “# >5K” value in test [5] is 5.
On to `O=C(Nc1cccc(-c2c[nH]c3ncnc(N4CCOCC4)c23)c1)C1(C(=O)Nc2ccc(F)c(F)c2)CC1` [Compound 17], for which the dTm stood at 0.61 K in [1]; 7.72 K in test [2]; 1.54 K in test [3]; 0.00857 K in test [4]; 0.26 K in [5]; 5.91 K in [6]. Further, the dTm in test [7] is 5.09 K; in test [8], 0.13 K; in test [9], 3.85 K; in [10], 7.75 K; in test [11], 5.74 K; in test [12] it was 0.57 K. The compound further returned a dTm in [13] of 4.77 K. The “S(5K)” value in test [5] (setting [14]) came out at 0.32; in test [5] (setting [15]) it was 0.320. In addition, the “# >5K” value in test [5] worked out at 32.
On to `O=C(Nc1cccc(-c2c[nH]c3ncnc(N4CCOCC4)c23)c1)C1(C(=O)Nc2cc(Br)c(F)cc2F)CC1` [Compound 25], for which the dTm was 1.31 K in test [1]; 6.63 K in [2]; 1.90 K in test [3]; -1.04 K in test [4]; 1.03 K in test [5]; 3.68 K in test [6]. Besides, the dTm in test [7] is recorded as 2.14 K; in test [8], 0.00 K; in [9], 1.86 K; in test [10], 2.68 K; in [11], 3.28 K; in test [12] it was 1.20 K. In test [13], this compound had a dTm of 0.31 K. Also, the “S(5K)” value was 0.10 in [5] (setting [14]) and 0.096 in [5] (setting [15]). Further, the “# >5K” value in test [5] came to 10.
Regarding `CC(C)(C)c1cc(NC(=O)Nc2cccc(-c3c[nH]c4ncnc(N5CCOCC5)c34)c2)n(-c2ccc3ncccc3c2)n1` [Compound 28], the dTm in test [1] is 2.95 K; in test [2] it was 6.24 K; in test [3], 1.84 K; in test [4] it was 0.83 K; in test [5], -0.0106 K; in test [6] it was 14.76 K. Moreover, the dTm in test [7] stood at 1.81 K; in test [8] it was 0.64 K; in test [9] it was 12.33 K; in test [10], 10.25 K; in test [11], 9.26 K; in test [12] it was 1.32 K. In test [13], this compound returned a dTm of 7.41 K. For the same compound, the “S (5 K) / share of screened kinases stabilized” value in test [5] was 49%. Further, the “S(5K)” value in test [5] (setting [14]) worked out at 0.49; in test [5] (setting [15]), 0.490. The “# >5K” value in test [5] was 49.
Regarding `COc1cc(C(=O)N2CCOCC2)c(F)cc1Nc1nc(N(C)C)c2c(Cl)c[nH]c2n1` [Compound 36], the dTm in [1] is on record as -0.34 K; in test [2], 1.71 K; in [3] it was 2.02 K; in test [4], -0.59 K; in [5], -0.29 K; in test [6] it was -0.66 K. Also, the dTm is reported as 4.43 K in test [7]; -1.36 K in test [8]; 0.33 K in test [9]; 5.31 K in test [10]; 1.84 K in test [11]; 0.40 K in test [12]. The dTm in [13] stood at 3.71 K. Moreover, the results for the “S(5K)” value in test [5] (setting [14]) and in test [5] (setting [15]) were 0.14 and 0.139, respectively. The “# >5K” value in test [5] is 14.
With `Cc1ccc(-n2nc(C(C)(C)C)cc2NC(=O)Nc2cccc(-c3c[nH]c4nc(Cl)nc(N5CCOCC5)c34)c2)cc1` [Compound 30], the dTm was -1.99 K in test [1]; 1.64 K in test [2]; -1.25 K in test [3]; -0.62 K in test [4]; -1.65 K in [5]; 1.78 K in [6]. Also, the dTm in test [7] is recorded as -2.01 K; in test [8], -1.01 K; in [9], 7.13 K; in test [10], 3.48 K; in test [11] it was 3.14 K; in test [12], -0.58 K. For the same compound, in test [13], the dTm was -4.19 K. Moreover, the “S (5 K) / share of screened kinases stabilized” value in test [5] worked out at 10%. Also, the “S(5K)” value came out at 0.10 in [5] (setting [14]) and 0.099 in [5] (setting [15]). The “# >5K” value in test [5] is recorded as 10.
